Results reported in patent US9102620B2, “Deuterated N-ethyl-N-phenyl-1,2-dihydro-4-hydroxy-5-chloro-1-methyl-2-oxoquinoline-3-carboxamide, salts and uses thereof” (TEVA PHARMACEUTICAL INDUSTRIES, LTD., priority 2010, dated 2015).

Assay: DELAQ concentrations in rat plasma following oral administration of test item
Assay type: in vivo
Conditions: rats, oral 0.2 mg/kg, in average
Description: DELAQ in rat plasma was also determined under the following condition. The plasma was purified by on-line SPE after precipitation with LUDOX AS-40 colloidal silica solution followed by the analysis with HPLC with MS/MS detection. The main objectives of this example were: • Quantification of Compound 1, Compound 2, Compound 3 and Laquinimod in rat plasma using LC/MS/MS bioanalytical method. • Characterization of the pharmacokinetic profile of Compound 1, Compound 2, Compound 3 and Laquinimod following oral (PO) administration at a dose of 0.2 mg/kg. • The measurement DELAQ concentrations in the collected plasma samples. Blood was withdrawn from the rats at five different time points for the preparation of plasma. The concentrations of Compound 1, Compound 2, Compound 3, laquinimod, and DELAQ were determined in these plasma samples, using applicable LC/MS/MS methods. The concentrations of test items (Compound 1, Compound 2, Compound 3 and Laquinimod) and the concentration of DELAQ were determined in the plasma samples by using reliable LC/MS/MS assay.

[2H]C([2H])([2H])C([2H])([2H])N(C(=O)c1c(O)c2c(Cl)cccc2n(C)c1=O)c1ccccc1 [Compound 2, N-D5-ethyl-N-phenyl-1,2-dihydro-4-hydroxy-5-chloro-1-methyl-2-oxoquinoline-3-carboxamide]
reduction in DELAQ concentrations compared to laquinimod treated animals: about ten-fold
